Blank lines part the entries; values can stand above or below the compound they belong to.
Legend:
[1] = test system: human neutrophils; assay: Binding of PGG β-glucan after serum pre-treatment, neutrophils; format: cell-based; settings: 10 mM EGTA with or without 10 mM MgCl2; vs untreated serum
Method: (§1) PGG β-glucan at concentration 60-80 mg/mL was incubated with human serum at 1:10 volume ratio for 30 minutes in a 37° C. water bath. The serum-pretreated PGG β-glucan was added to neutrophils at 200 μg/mL or to PBMC at 100 μg/mL resuspended in RPM1 containing either 10% regular autologous serum or 10% HI serum at indicated time and temperature of incubation. Binding was then determined as described previously.
(§2) To determine the role of complement proteins in binding, experiments were performed as described above except for using serum containing 10% HI, compstatin-treated or methylamine (MA)-treated, EGTA- or EGTA+MgCl2 (MgEGTA)-treated, or factor D-blocked serum. Heat-inactivated (HI) serum was prepared by incubating serum in a 56° C. water bath for 30 minutes. […] Treatment of serum with methylamine (MA) was done by incubating serum with 0.67% of methylamine for 2.5 hours at 37° C., followed by three washes with DPBS using Amicon centrifugal filter unit with a 3K MW cut-off (Millipore, Billerica, Mass.). DPBS-treated serum was prepared in the same manner and used as control serum for MA-treated serum. For blocking of factor D in the serum, 166-32 at concentration 20 μg/mL was incubated with serum on ice for 30 minutes, and then used for binding studies. […]

[2] = test system: human monocytes; assay: Binding of PGG β-glucan after serum pre-treatment, monocytes; format: cell-based; settings: 10 mM EGTA with or without 10 mM MgCl2; vs untreated serum
Method: as §1, §2

[3] = molecular target: T1, iC3b (Homo sapiens, UniProt P01024); assay: ELISA for iC3b deposition on immobilized PGG β-glucan; format: binding; settings: for Effect of serum treatment on iC3b deposition on immobilized β-glucan: methylamine 0.67%, 10 mM EGTA, 10 mM EGTA+10 mM MgCl2
T1 construct: from tissue
T1 sequence (P01024 749-1303 limits assumed): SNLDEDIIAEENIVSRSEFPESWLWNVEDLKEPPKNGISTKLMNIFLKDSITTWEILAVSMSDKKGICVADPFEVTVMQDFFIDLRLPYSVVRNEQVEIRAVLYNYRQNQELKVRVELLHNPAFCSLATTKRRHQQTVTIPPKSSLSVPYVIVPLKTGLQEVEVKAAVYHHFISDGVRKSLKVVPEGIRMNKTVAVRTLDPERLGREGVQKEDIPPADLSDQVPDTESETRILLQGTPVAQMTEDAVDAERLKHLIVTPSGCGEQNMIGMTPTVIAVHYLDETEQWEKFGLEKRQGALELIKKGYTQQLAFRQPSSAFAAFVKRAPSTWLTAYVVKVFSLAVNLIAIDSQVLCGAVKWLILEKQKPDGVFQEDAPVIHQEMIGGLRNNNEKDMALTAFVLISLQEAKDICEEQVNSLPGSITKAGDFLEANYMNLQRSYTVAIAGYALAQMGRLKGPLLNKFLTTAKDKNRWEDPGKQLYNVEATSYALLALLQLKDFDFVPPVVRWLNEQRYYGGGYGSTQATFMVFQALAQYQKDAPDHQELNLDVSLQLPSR
T1 sequence (P01024 23-667 partner limits assumed): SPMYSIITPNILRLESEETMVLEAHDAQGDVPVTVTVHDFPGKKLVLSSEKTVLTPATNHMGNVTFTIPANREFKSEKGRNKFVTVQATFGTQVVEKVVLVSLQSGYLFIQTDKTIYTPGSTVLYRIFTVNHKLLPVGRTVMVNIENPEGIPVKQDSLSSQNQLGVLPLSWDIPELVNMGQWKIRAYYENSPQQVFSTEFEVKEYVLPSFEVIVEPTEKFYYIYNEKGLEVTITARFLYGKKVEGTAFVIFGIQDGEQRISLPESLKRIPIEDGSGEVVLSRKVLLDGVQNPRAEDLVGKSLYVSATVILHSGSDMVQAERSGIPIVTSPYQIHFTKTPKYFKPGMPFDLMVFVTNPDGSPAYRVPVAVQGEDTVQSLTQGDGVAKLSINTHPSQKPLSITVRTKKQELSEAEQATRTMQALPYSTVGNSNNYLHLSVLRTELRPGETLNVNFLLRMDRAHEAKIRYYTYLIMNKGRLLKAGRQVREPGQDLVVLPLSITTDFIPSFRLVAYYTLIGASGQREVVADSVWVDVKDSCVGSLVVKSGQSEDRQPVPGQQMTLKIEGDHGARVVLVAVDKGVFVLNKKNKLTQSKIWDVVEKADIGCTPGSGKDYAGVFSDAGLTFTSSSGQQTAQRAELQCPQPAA
T1 sequence (P01024 1321-1663 partner limits assumed): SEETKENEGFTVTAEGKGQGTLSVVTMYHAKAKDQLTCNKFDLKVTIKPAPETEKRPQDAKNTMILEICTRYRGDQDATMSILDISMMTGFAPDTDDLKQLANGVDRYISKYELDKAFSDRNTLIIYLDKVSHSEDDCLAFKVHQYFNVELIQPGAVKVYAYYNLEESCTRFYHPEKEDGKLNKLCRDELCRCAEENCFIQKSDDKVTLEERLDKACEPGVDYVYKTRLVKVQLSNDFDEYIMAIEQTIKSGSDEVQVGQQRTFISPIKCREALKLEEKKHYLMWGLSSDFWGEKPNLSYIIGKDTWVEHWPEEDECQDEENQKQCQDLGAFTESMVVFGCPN
Method: PGG β-glucan or dextran was immobilized on wells of a 96-well polystyrene plate (COSTAR, Coming, Inc., Lowell, Mass.) by drying the glucans at 50° C. followed by UV cross-linking. The glucan-coated plate was first blocked with 1% BSA before incubation with untreated serum or serum undergone various treatments as described in binding studies, diluted 1:2 with wash buffer (PBS/0.05% Tween-20) for 30 minutes at 37° C. After washing the serum from the plate, the bound iC3b was probed using the anti-iC3b monoclonal antibody followed by biotin-labeled goat anti-mouse IgG Ab. The amount of immobilized biotin-labeled antibody was determined using streptavidin peroxidase and TMB substrate solution (KPL, Gaithersburg, Md.). OD450 of each well was measured with the spectrophotometer SpectraMAX 250 (Molecular Devices, Sunnyvale, Calif.). Fold change was calculated as OD450 of wells containing immobilized β-glucan divided by OD450 of wells containing no β-glucan, both incubated in the presence of treated or untreated serum.

[4] = test system: sC5b-9 complex; assay: Measurement of fluid-phase SC5b-9 complex formation in the serum; format: biochemical, human; settings: serum treated with 10 mM EGTA with or without 10 mM MgCl2
Method: The MicroVue SC5b-9 EIA kit was used to measure activation of the classical and alternative pathways of complement according to the vendor's instruction (Quidel Corp., San Diego, Calif.). Briefly, the serum, untreated or treated was mixed with PBS, Ab-sensitized sheep RBC (SRBC), or 20 units of CVF and added to plate wells pre-coated with anti-sC5b-9 monoclonal antibody. The plate was incubated at 37° C. for 60 minutes, followed by five washes with the provided wash buffer. The plate was then incubated with the provided SC5b-9 Plus Conjugate, which contained horseradish peroxidase-conjugated Ab specific for sC5b-9 at room temperature for 30 minutes. The plate was washed five times, incubated with the substrate for 15 minutes at room temperature to initiate the enzymatic reaction and subsequently quenched with the stop solution. OD450 Was measured using the spectrophotometer SpectraMAX 250. The concentration of fluid phase sC5b-9 present in the samples was determined from the standard curve generated with the provided sC5b-9 standards.

[5] = test system: human neutrophils; assay: Binding studies on the role of complement proteins in serum, neutrophils; format: cell-based; settings: for Effect of the agent added to serum or media on binding of PGG β-glucan: compstatin/control peptide 20 or 100 μM, methylamine 0.67%, 166-32 20 μg/mL, HSA 10%
Method: (§3) Heat-inactivated (HI) serum was prepared by incubating serum in a 56° C. water bath for 30 minutes. […] Treatment of serum with methylamine (MA) was done by incubating serum with 0.67% of methylamine for 2.5 hours at 37° C., followed by three washes with DPBS using Amicon centrifugal filter unit with a 3K MW cut-off (Millipore, Billerica, Mass.). DPBS-treated serum was prepared in the same manner and used as control serum for MA-treated serum. For blocking of factor D in the serum, 166-32 at concentration 20 μg/mL was incubated with serum on ice for 30 minutes, and then used for binding studies. For binding experiments in the presence of EGTA or MgEGTA, serum was incubated with 10 mM EGTA with or without 10 mM MgCl2 for 10 minutes at room temperature. The untreated and EGTA/MgEGTA-treated serum was then used to pre-treat PGG and perform binding studies as described earlier.

[6] = test system: human monocytes; assay: Binding studies on the role of complement proteins in serum, monocytes; format: cell-based; settings: for Effect of the agent added to serum or media on binding of PGG β-glucan: compstatin/control peptide 20 or 100 μM, methylamine 0.67%, 166-32 20 μg/mL, HSA 10%
Method: as §3

[7] = test system: human neutrophils; assay: Binding of DTAF-labeled PGG β-glucan to human neutrophils, with excess unlabeled competitor; format: cell-based; settings: 10 mg/mL unlabeled competitor; 25 μg/mL DTAF-labeled β-glucan
Method: In early optimization experiments, neutrophils, monocytes, and T cells were identified by staining with fluorescently labeled anti-CD 15, anti-CD 14, or anti-CD3 Abs, respectively. Events were collected on a LSRII flow cytometer (BD Biosciences, San Jose, Calif.) and analysis was performed using FLOWJO (Tree Star, Ashland, Oreg.). For assessing binding of DTAF-labeled PGG β-glucan to human neutrophils, 25 βg/mL, 100 μg/mL, or 400 μg/mL of labeled β-glucan was added to neutrophils resuspended in RPMI/10% serum, incubated in a 37° C., 5% CO2 humidified incubator for one hour, washed twice with cold FACS buffer, and fixed with 1% paraformaldehyde. Surface binding of DTAF-conjugated β-glucan was subsequently assessed by flow cytometric analysis.

[8] = molecular target: T1, iC3b; assay: Immunoprecipitation of PGG β-glucan with BfD IV and detection of pulled-down iC3b; format: binding; settings: glucan incubated with regular serum
Method: PGG β-glucan or dextran at concentration 60-80 mg/mL was incubated with regular or HI serum at 1:10 volume ratio for 30 minutes in a 37° C. water bath. BfD IV Ab was added to the serum/β-glucan mixture and incubated at room temperature for additional 30 minutes. Magnetic beads conjugated with rat anti-mouse IgM (DYNABEADS, Invitrogen, Camarillo, Calif.) were washed three times with DPBS and incubated with serum-PGG β-glucan-BfD IV mixture for another 30 minutes at room temperature. The beads were separated magnetically and iC3b pulled-down along with immunoprecipitated PGG was probed using FITC-conjugated complement C3 Ab by flow cytometer.

[9] = 100 μM compstatin-treated serum vs control peptide, C3 blocking, three donors

Compound: O=C(O)CN(CCOCCOCCN(CC(=O)O)CC(=O)O)CC(=O)O [EGTA]
Rescue of binding to cells in HI serum by PGG β-glucan pre-opsonized in treated serum [1]: rescue of binding was diminished | Rescue of binding to cells in HI serum by PGG β-glucan pre-opsonized in treated serum [2]: rescue of binding was diminished | Effect of serum treatment on iC3b deposition on immobilized β-glucan [3]: completely inhibited | Effect on CVF-activated alternative pathway (sC5b-9 formation) [4]: completely blocked both the classical and alternative pathways to background levels | Effect on SRBC-activated classical pathway (sC5b-9 formation) [4]: completely blocked both the classical and alternative pathways to background levels

Compound: CC[C@H](C)[C@H](N)C(=O)N[C@H]1CSSC[C@@H](C(=O)N[C@H](C(N)=O)[C@@H](C)O)NC(=O)[C@H](CCCN=C(N)N)NC(=O)[C@H](Cc2cnc[nH]2)NC(=O)[C@H](Cc2cnc[nH]2)NC(=O)CNC(=O)[C@H](Cc2c[nH]c3ccccc23)NC(=O)[C@H](CC(=O)O)NC(=O)[C@H](CCC(N)=O)NC(=O)[C@H](C(C)C)NC(=O)[C@H](C(C)C)NC1=O [compstatin]
Average percentage of inhibition of β-glucan binding [5, 9]: 95% | Range of percentage of inhibition of β-glucan binding [5, 9]: 90-98% | Effect of the agent added to serum or media on binding of PGG β-glucan [5]: inhibited binding of β-glucan in a concentration-dependent manner | Average percentage of inhibition of β-glucan binding [6, 9]: 80% | Range of percentage of inhibition of β-glucan binding [6, 9]: 62-92% | Effect of the agent added to serum or media on binding of PGG β-glucan [6]: inhibited binding of β-glucan in a concentration-dependent manner

Compound: CN [methylamine]
Effect of the agent added to serum or media on binding of PGG β-glucan [5]: abrogated the ability of PGG β-glucan to bind to cells | Effect of the agent added to serum or media on binding of PGG β-glucan [6]: abrogated the ability of PGG β-glucan to bind to cells | Effect of serum treatment on iC3b deposition on immobilized β-glucan [3]: complete inhibition of iC3b deposition

Second part, led by results:

Effect of the agent added to serum or media on binding of PGG β-glucan [6]: no effect on binding
Compound: control peptide: control peptide IAVVQDWGHHRAT (SEQ ID NO:2) (control polypeptide)
Effect of the agent added to serum or media on binding of PGG β-glucan [5]: no effect on binding

Fold increase of iC3b detected on immobilized glucan compared to background ([3]; 300 μg/mL immobilized, regular serum 30 minutes at 37° C.): significantly less iC3b detected | iC3b pulled down with BfD IV immunoprecipitate [8]: absence of iC3b
Compound: dextran [reference compound]
Blocking of DTAF-labeled β-glucan staining by excess unlabeled glucan [7]: did not block binding

— US10092657B2, “Opsonized β-glucan preparations and methods” (Biothera, Inc., priority 2011, dated 2018)
